Patent publication US20240166641A1, “HETEROCYCLES AND USES THEREOF” (Kumquat Biosciences Inc., priority 2021, published 2024)

Experiments:
PTPN2 = target: T1, PTPN2 (Homo sapiens, UniProt P17706); test: Phosphatase activity assay (Bio-Biochem-DiFMUP), PTPN2; assay type: biochemical; conditions: DiFMUP substrate, room temperature
T1 sequence (P17706 1-415): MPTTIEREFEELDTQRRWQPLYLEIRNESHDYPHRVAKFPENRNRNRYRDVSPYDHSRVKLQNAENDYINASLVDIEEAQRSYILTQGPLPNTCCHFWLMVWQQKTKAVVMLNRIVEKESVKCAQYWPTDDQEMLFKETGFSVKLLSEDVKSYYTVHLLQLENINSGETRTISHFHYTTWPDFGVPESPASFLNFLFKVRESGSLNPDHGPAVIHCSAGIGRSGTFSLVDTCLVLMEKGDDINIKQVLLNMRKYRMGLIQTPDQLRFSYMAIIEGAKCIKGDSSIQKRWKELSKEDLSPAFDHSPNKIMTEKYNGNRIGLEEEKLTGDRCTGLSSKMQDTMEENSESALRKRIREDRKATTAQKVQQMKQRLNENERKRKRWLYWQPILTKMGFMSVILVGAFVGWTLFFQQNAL
From the text: (§1) The selectivity and potency of a small molecule PTPN2 inhibitor as provided herein (e.g., a derivative of Formula I, II, III, IV; or sub-formulae thereof) against one or more protein tyrosine phosphatase (PTP) enzymes, and specifically against PTPN2, can be assessed in various ways. The one or more PTP enzymes comprise Mycobacterium protein tyrosine phosphatase A (mPTPA), Mycobacterium protein tyrosine phosphatase B (mPTPB), PTPN1 (i.e., PTP1B), PTPN2 (i.e., TC-PTP), SHP-1, SHP-2, FAP-1, Meg2, HePTP, Laforin, VHX, VHR, LMWPTP, Cdcl4A, LAR, CD45, PTPRG, a fragment thereof, a variant thereof, and a combination thereof. Selectivity and potency of a small molecule PTPN2 inhibitor is evaluated using a PTP activity inhibition assay. The assay is performed using a buffer comprising 50 millimolar (mM) Bis-Tris (pH=6.3), 2 mM EDTA, and 5 mM N,N′-dimethyl-N,N′-bis(mercaptoacetyl)hydrazine (DMH). The assay is performed using a phosphated substrate, e.g., 10 mM fluorescein diphosphate (FDP) that is stored at −20° C. Alternatively or in addition to, the assay is performed using 10 mM DiFMUP as a phosphated substrate. Each PTP enzyme is diluted in an enzyme dilution buffer comprising 50 mM Bis-Tris (pH=6.3), 2 mM EDTA, 5 mM DMH, 20% (vol./vol.) glycerol, and 0.01% (vol./vol.) Triton X-100.
(§2) The assay is carried out at room temperature in 96 well plates. A reaction mixture of 170 microliter (μL) of the assay buffer comprising 10 μM FDP or DiFMIUP is added to each well. A 10 μL volume of (i) a compound disclosed herein (e.g., PTPN2 inhibitor) dissolved in DMSO at one of 10 concentrations from a serial dilution or (ii) DMSO alone for control is added to each well. The reaction is initiated by adding 20 μL of a PTP enzyme (e.g., PTPN2) that is diluted in the enzyme dilution buffer. The phosphatase activity of the PTP enzyme is assessed by monitoring appearance of a fluorescent product (e.g., fluorescein monophosphate (FMP) from FDP, or 6,8-difluoro-7-hydroxyl-4-coumarin (DiFMU) from DiFMUP) continuously for about 15 to 30 minutes, using the SpectraMax® Gemini™ XPS Microplate Spectrofluorometer (Molecular Devices®) with excitation of 440 nm and emission at 530 nm (cutoff filter at 525 nm) for FMP and excitation at 360 nm and emission at 450 nm (cutoff filter at 435 nm) for DiFMU. The rate (e.g., the initial rate) of FMP or DiFMU formation is plotted against the concentration of the small molecule PTPN2 inhibitor, and the data is fitted (e.g., using a 4-parameter equation) to determine the inflection point of the fit as the IC50 of the small molecule PTPN2 inhibitor for a specific enzyme. Table 6 summarizes the IC50 values of compounds disclosed herein against PTPN2 and PTPN1.

PTP1B = target: T2, PTP1B (Homo sapiens, UniProt P18031); test: Phosphatase activity assay (Bio-Biochem-DiFMUP), PTP1B; assay type: biochemical; conditions: DiFMUP substrate, room temperature
T2 sequence (P18031 1-435): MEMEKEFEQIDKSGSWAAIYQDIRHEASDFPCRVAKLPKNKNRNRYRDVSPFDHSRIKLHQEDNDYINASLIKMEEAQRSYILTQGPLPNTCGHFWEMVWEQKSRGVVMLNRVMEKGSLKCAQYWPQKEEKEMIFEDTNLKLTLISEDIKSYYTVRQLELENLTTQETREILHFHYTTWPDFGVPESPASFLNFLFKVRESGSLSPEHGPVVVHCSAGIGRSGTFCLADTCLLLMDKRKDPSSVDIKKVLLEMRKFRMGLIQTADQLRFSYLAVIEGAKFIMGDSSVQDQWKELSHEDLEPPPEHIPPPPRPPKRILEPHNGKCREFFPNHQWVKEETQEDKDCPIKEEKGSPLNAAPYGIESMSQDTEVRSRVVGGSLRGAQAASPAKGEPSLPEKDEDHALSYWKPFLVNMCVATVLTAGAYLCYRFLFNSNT
From the text: as §1, §2

Row | SMILES | IC50 (PTPN2) | IC50 (PTP1B)
1 | CC(C)CCn1ccc2cc(O)c(N3CC(=O)NS3(=O)=O)cc2c1=O [Compound 199] | > 10000 nM | > 10000 nM
2 | CCN1CC(Nc2cc3cc(N4CC(=O)NS4(=O)=O)c(O)cc3n(C)c2=O)C1 [Compound 174] | 1000 to 10000 nM | ≤ 1000 nM
3 | COc1cc2c(cc1N1CC(=O)NS1(=O)=O)C(=O)N(C)CC2 [Compound 101] | > 10000 nM | > 10000 nM
4 | Cn1c(=O)c(NCCC2CC2)cc2cc(N3CC(=O)NS3(=O)=O)c(O)cc21 [Compound 168] | 1000 to 10000 nM | ≤ 1000 nM
5 | CC(C)CCN(C)c1ccc2cc(O)c(N3CC(=O)NS3(=O)=O)cc2n1 [Compound 121] | 1000 to 10000 nM | 1000 to 10000 nM
6 | O=C1C=C(c2cc3cc(-c4cccnc4)cnc3cc2O)S(=O)(=O)N1 [Compound 115, 5-(7-hydroxy-3-(pyridin-3-yl)quinolin-6-yl)isothiazol-3(2H)-one 1,1-dioxide] | > 10000 nM | 1000 to 10000 nM
7 | CC(C)CCNc1ccc2cc(O)c(C3CC(=O)NS3(=O)=O)cc2n1 (centres unmarked) [Compound 109] | > 10000 nM | 1000 to 10000 nM
8 | COC(=O)c1cc2cc(N3CC(=O)NS3(=O)=O)c(OC)cc2s1 [Compound 102, methyl 5-(1,1-dioxido-4-oxo-1,2,5-thiadiazolidin-2-yl)-6-methoxybenzo[b]thiophene-2-carboxylate] | > 10000 nM | > 10000 nM
9 | Cn1c(=O)c(C#N)cc2cc(N3CC(=O)NS3(=O)=O)c(O)cc21 [Compound 161] | > 10000 nM | > 10000 nM
10 | O=C1C=C(c2cc3cc(Cl)cnc3cc2O)S(=O)(=O)N1 [Compound 107] | > 10000 nM | 1000 to 10000 nM
11 | CC(C)CCNc1ccc2cc(O)c(C3=CC(=O)NS3(=O)=O)cc2n1 [Compound 106, 5-(6-hydroxy-2-(isopentylamino)quinolin-7-yl)isothiazol-3(2H)-one 1,1-dioxide] | 1000 to 10000 nM | ≤ 1000 nM
12 | Cn1c(=O)c(N2CCCCC2)cc2cc(N3CC(=O)NS3(=O)=O)c(O)cc21 [Compound 169] | 1000 to 10000 nM | 1000 to 10000 nM
13 | CN1CCc2cc(O)c(N3CC(=O)NS3(=O)=O)cc2C1=O [Compound 104] | > 10000 nM | > 10000 nM
14 | O=C1CN(c2cc3nc(OCCN4CCC4)ccc3cc2O)S(=O)(=O)N1 [Compound 163] | > 10000 nM | > 10000 nM
15 | Cn1c(=O)c(NCCOC2CCCC2)cc2cc(N3CC(=O)NS3(=O)=O)c(O)cc21 [Compound 140] | 1000 to 10000 nM | ≤ 1000 nM
16 | CC(C)CCN1Cc2cc(C3CC(=O)NS3(=O)=O)c(O)cc2N(C)C1=O (centres unmarked) [Compound 111, 5-(7-hydroxy-3-isopentyl-1-methyl-2-oxo-1,2,3,4-tetrahydroquinazolin-6-yl)isothiazolidin-3-one 1,1-dioxide] | > 10000 nM | > 10000 nM
17 | CC(C)CCCN1CCc2cc(O)c(N3CC(=O)NS3(=O)=O)cc2C1=O [Compound 105] | 1000 to 10000 nM | > 10000 nM

The remaining lines, values ahead:

Row | IC50 (PTPN2) | IC50 (PTP1B) | SMILES
18 | 1000 to 10000 nM | 1000 to 10000 nM | CCN1CCC(Nc2cc3cc(N4CC(=O)NS4(=O)=O)c(O)cc3n(C)c2=O)CC1 [Compound 166]
19 | 1000 to 10000 nM | 1000 to 10000 nM | CC(C)CCn1ccc2cc(O)c(N3CC(=O)NS3(=O)=O)c(F)c2c1=O [Compound 157]
20 | ≤ 1000 nM | ≤ 1000 nM | CC(C)Oc1cc2c(F)c(N3CC(=O)NS3(=O)=O)c(O)cc2n(C)c1=O [Compound 156]
21 | ≤ 1000 nM | ≤ 1000 nM | CC(C)CCN1Cc2cc(N3CC(=O)NS3(=O)=O)c(O)cc2CC1=O [Compound 119, 5-(6-hydroxy-2-isopentyl-3-oxo-1,2,3,4-tetrahydroisoquinolin-7-yl)-1,2,5-thiadiazolidin-3-one 1,1-dioxide]
22 | ≤ 1000 nM | ≤ 1000 nM | C[C@@H](Nc1cc2cc(N3CC(=O)NS3(=O)=O)c(O)cc2n(C)c1=O)c1ccccc1 [Compound 162]
23 | ≤ 1000 nM | ≤ 1000 nM | O=C1CN(c2cc3nc(-c4cnn(CC5CC5)c4)ccc3cc2O)S(=O)(=O)N1 [Compound 188]
24 | ≤ 1000 nM | ≤ 1000 nM | O=C1CN(c2cc3nc(OCCc4ccccc4)ccc3cc2O)S(=O)(=O)N1 [Compound 167]
25 | ≤ 1000 nM | ≤ 1000 nM | CC(C)CCCc1cc2cc(N3CC(=O)NS3(=O)=O)c(O)cc2n(C)c1=O [Compound 152]
26 | ≤ 1000 nM | ≤ 1000 nM | O=C1CN(c2cc3nc(NCCc4ccccc4)ccc3cc2O)S(=O)(=O)N1 [Compound 118]
27 | ≤ 1000 nM | ≤ 1000 nM | Cn1c(=O)c(NCCC2CCCCC2)cc2cc(N3CC(=O)NS3(=O)=O)c(O)cc21 [Compound 141]
28 | ≤ 1000 nM | ≤ 1000 nM | Cn1c(=O)c(NCC(C)(F)F)cc2cc(N3CC(=O)NS3(=O)=O)c(O)cc21 [Compound 173]
29 | ≤ 1000 nM | ≤ 1000 nM | O=C1CN(c2cc3nc(OCCc4ccc(F)cc4)ccc3cc2O)S(=O)(=O)N1 [Compound 189]
30 | ≤ 1000 nM | ≤ 1000 nM | Cn1c(=O)c(NCCC2CCCC2)cc2c(F)c(N3CC(=O)NS3(=O)=O)c(O)cc21 [Compound 179]
31 | ≤ 1000 nM | ≤ 1000 nM | O=C1CN(c2cc3nc(NCCc4ccccn4)ccc3cc2O)S(=O)(=O)N1 [Compound 126]
32 | ≤ 1000 nM | ≤ 1000 nM | Cn1c(=O)c(NCCCCC#N)cc2cc(N3CC(=O)NS3(=O)=O)c(O)cc21 [Compound 193]
33 | ≤ 1000 nM | ≤ 1000 nM | Cn1c(=O)c(NC2CCN(S(C)(=O)=O)C2)cc2cc(N3CC(=O)NS3(=O)=O)c(O)cc21 (centres unmarked) [Compound 191]
34 | ≤ 1000 nM | ≤ 1000 nM | Cn1c(=O)c(NCCC2CCC(F)(F)CC2)cc2cc(N3CC(=O)NS3(=O)=O)c(O)cc21 [Compound 201]
35 | ≤ 1000 nM | ≤ 1000 nM | O=C1CN(c2c(O)cc3ccc(NCCc4ccccc4)nc3c2F)S(=O)(=O)N1 [Compound 125]
36 | ≤ 1000 nM | ≤ 1000 nM | CC(C)CCOc1ccc2cc(O)c(N3CC(=O)NS3(=O)=O)cc2n1 [Compound 182]
37 | ≤ 1000 nM | ≤ 1000 nM | O=C1CN(c2cc3cc(C(=O)NCCc4ccccc4)sc3cc2O)S(=O)(=O)N1 [Compound 170]
38 | ≤ 1000 nM | ≤ 1000 nM | Cn1c(=O)c(NCc2ccccc2)cc2c(F)c(N3CC(=O)NS3(=O)=O)c(O)cc21 [Compound 180]
39 | ≤ 1000 nM | ≤ 1000 nM | COc1cc2c(F)c(N3CC(=O)NS3(=O)=O)c(O)cc2n(C)c1=O [Compound 146]
40 | ≤ 1000 nM | ≤ 1000 nM | Cn1c(=O)c(NCCN2CCOCC2)cc2cc(N3CC(=O)NS3(=O)=O)c(O)cc21 [Compound 127]
